One data set deals with T1, CYP2D6 (Homo sapiens, UniProt P10635).
T1 construct: purchased BD Bioscience
The data set can be described thus: CYP2D6 inhibition (dextromethorphan O-demethylation) in human hepatic microsomes. The note with it: pooled male human hepatic microsomes. The class given is in vitro ADME. As for the experimental part:
The 200 μL incubations were conducted in duplicate in 0.1 M potassium phosphate buffer (pH 7.4) with 0.02 mg of microsomal protein, 3 mM MgCl2, 1 mM EDTA and 7.5 μM of the probe substrate dextromethorphan in a 96-well polypropylene plate maintained at 37° C. After a 3-minute pre-incubation, the reaction was initiated with the addition of 2 mM NADPH. Upon completion of the 10-minute incubation period, aliquots of 100 μL were removed and added to a new plate containing 100 μL of internal standard in acidified acetonitrile to stop the reaction. The quenched samples were vortexed and the precipitated protein was removed by centrifugation. Supernatant aliquots of 100 μL were transferred to LC vials and 5 μL were injected onto the HPLC system for LC/MS/MS analysis of the metabolite dextrorphan. Standards and quality control samples were similarly prepared using authentic dextrorphan standards.
Dexthorphan concentrations were determined by high performance liquid chromatography with tandem mass spectrometric detection (LC/MS/MS) after protein precipitation with acidified acetonitrile containing internal standard. Separations were performed with a Flux Rheos 2000 quaternary pump (Leap Technologies, Inc., Carrboro, N.C.) using an XTerra® MS C18, 3.5 μm, 4.6×50 mm column (Waters Corporation, Milford, Mass.). […]

For data set [1], the system named is L5 SNL rats. Put plainly: L5 SNL model of neuropathic pain, tactile allodynia (von Frey). The class given is in vivo, rat. The protocol: Protocol. […] Neurosci. Methods 144:175-181. The test animals were placed in a Plexiglas chamber (10 cm×20 cm×25 cm) and habituated for 15 minutes. The chamber was positioned on top of a mesh screen so that von Frey monofilaments could be presented to the plantar surface of both hindpaws. Measurement of tactile sensitivity for each hind paw were obtained using the up/down method (Dixon, 1980, Annu Rev. Pharmacol. […] Each trial started with a von Frey force of 2 grams delivered to the right hind paw for approximately 1-2 seconds and then the left hind paw. If there was no withdrawal response, the next higher force was delivered. If there was a response, the next lower force was delivered. This procedure was performed until no response was made at the highest force (15 grams) or until four stimuli were administered following the initial response. The 50% paw withdrawal threshold for each paw was calculated using the following formula: […] Testing for tactile sensitivity was performed twice and the mean 50% withdrawal value assigned as the tactile sensitivity for the right and left paws for each animal. All test groups contained at least six animals. Protocol. […] In the experiment, animals were tested for tactile allodynia at 30 min post treatment. The sham-operated control group, which were operated on but not subject to nerve ligation, contained 4 animals. The treatment group contained at least six animals. Protocol. […] All test groups contained at least six animals. Protocol. […] The data obtained are depicted in FIG. 11.

Another data set has as its system Male Sprague-Dawley rats. The data set can be described thus: Rat hot plate model of acute nociceptive pain. It counts as in vivo. The settings on record: 30 and 60 mg/kg IP, 50° C. hot plate (FIGS. 6A, 6B). As for the experimental part: Protocol. […] For the experiment, rats were acclimated to a 50° C. hot plate apparatus by gently placing them on the hot plate with all four paws on the surface. A timer was started and the latency (in seconds) until the rat licked any of its paws was measured. A 60 second cut-off to elicit a response was set to prevent tissue damage to the paws. After the rats elicited the paw lick response, they were removed from the apparatus and returned to their home cages for at least 30 minutes. Baseline paw lick latencies were determined prior to drug treatments in an identical manner to the acclimation test. Following drug treatments, the rats were placed on the hot plate apparatus at the appropriate time and treatment paw lick latencies were determined. All test groups contained at least six animals.

In a further data set the test system is male ICR mice. Put plainly: Acetic acid-induced writhing (visceral pain). It counts as in vivo, mouse. The protocol:
Protocol. […] Five minutes after treatment with acetic acid, the number of writhes was counted for 10 min. A writhe is defined as the extension of both front and hind limbs with a concave stretch of the abdomen. The mean number of writhes was determined for each treatment group and the percent inhibition of the vehicle response was calculated using the following formula: […]
On the technique in general: An intraperitoneal irritant provokes the stretching counted in writhing tests.

In data set [2] the test system is L5 SNL rats. Put plainly: L5 SNL model of neuropathic pain, tactile allodynia (von Frey). It counts as in vivo, rat. The note with it: for antiallodynic effect over time, oral: 60 mg/kg PO.
Another data set concerns noradrenaline reuptake. The settings on record: synaptosomes from rat and primate brain; cited from earlier work.
The next data set concerns the target T2, 5HT2C receptor (Homo sapiens, UniProt P28335).
T2 sequence (P28335 33-458): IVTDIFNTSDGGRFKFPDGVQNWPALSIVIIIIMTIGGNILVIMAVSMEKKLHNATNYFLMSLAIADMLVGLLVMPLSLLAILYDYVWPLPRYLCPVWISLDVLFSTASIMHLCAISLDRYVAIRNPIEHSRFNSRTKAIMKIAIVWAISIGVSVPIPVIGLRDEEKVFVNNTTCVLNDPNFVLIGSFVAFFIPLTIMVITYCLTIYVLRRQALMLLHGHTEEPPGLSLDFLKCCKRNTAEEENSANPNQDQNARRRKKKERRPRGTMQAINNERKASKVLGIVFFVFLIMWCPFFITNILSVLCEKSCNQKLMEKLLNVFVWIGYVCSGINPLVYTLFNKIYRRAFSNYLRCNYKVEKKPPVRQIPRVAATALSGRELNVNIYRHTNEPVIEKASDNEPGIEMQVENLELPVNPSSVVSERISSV
The settings on record: published report; cited from earlier work.

Data set [3] has as its system patients hospitalized for depression. The settings on record: phase IIA; cited from earlier work.
A further data set deals with human volunteers. The note with it: 25-400 mg, cited from earlier work.

Molecules are shown by their SMILES. Entries after “also recorded” stand apart in the source; their conditions may differ.

T1 sequence (P10635 whole entry): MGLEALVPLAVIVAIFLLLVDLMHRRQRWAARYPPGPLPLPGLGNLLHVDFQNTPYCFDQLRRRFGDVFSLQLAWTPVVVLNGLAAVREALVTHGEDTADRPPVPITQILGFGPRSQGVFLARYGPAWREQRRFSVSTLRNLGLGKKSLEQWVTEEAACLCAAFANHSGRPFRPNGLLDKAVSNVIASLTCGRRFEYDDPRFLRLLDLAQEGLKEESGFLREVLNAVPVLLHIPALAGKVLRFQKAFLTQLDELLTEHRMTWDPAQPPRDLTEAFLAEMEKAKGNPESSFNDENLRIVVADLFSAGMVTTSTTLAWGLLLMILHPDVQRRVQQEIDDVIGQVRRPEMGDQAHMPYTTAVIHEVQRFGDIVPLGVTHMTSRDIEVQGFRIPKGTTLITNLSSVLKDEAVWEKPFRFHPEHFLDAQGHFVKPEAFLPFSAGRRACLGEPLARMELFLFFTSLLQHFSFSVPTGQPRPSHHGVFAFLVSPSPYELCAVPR

Regarding `Cc1cccc2c1Oc1ccccc1C1(O)CCN(C)CC21` (racemic) [beloxepin, cis-1,2,3,4,4a,13b-hexahydro-2,10-dimethyldiben-[2,3:6,7]oxepino[4,5c]pyridine-4a-ol]], 31.7 µM corresponded to half-maximal inhibition on CYP2D6 (IC50). In the data set on L5 SNL rats [1] (30 mg/kg IP, L5 SNL rats), the “side effects following treatment” value is “No side effects were observed”. In the data set with L5 SNL rats [1] (each 30 mg/kg IP (FIG. 11)), the “antiallodynic efficacy compared with duloxetine” value is listed as “comparable in efficacy to duloxetine” and the “peak antiallodynic effect compared with esreboxetine” value is “greater than that measured in rats treated with esreboxetine”. Also, the “anti-nociceptive activity (paw lick latency)” value with Male Sprague-Dawley rats is “nearly as effective as 3 mg/kg morphine; also recorded: almost equivalent to that of 3 mg/kg morphine”. Besides, in the data set with male ICR mice (Mus musculus, oral, 25 min prior to 0.6% acetic acid IP (FIG. 8), read-out: ED50 inhibition of acetic acid-induced writhing), the ED50 (as a rule, the dose that gives a 50% effect, or the effect in half of the subjects) came to 13.3 mg/kg. Moreover, the “inhibition of acetic acid-induced writhing, dose dependence” value in the data set with male ICR mice (oral (FIG. 8)) is recorded as “dose-dependent fashion”. The “tactile antiallodynic effect, % of that observed with sham-operated animals” value in the data set on L5 SNL rats [2] (30 mg/kg IP (FIG. 2)) is roughly 100%. Further, the observed mean threshold entry with L5 SNL rats [2] (30 mg/kg IP (FIG. 3)) is reported as “approximately 15 g”. Further, in the data set on L5 SNL rats [2] (30 mg/kg IP, 14 days post surgery, 30 min post treatment (FIG. 1)), the “maximal antiallodynic effect, % of the threshold of vehicle-treated rats” value is listed as 829%. Besides, the “antiallodynic effect over time” value with L5 SNL rats [2] (30 mg/kg IP, 14 days post surgery, tested 30, 60, 120, 240 min) was “significant antiallodynia effects at the 30, 60 and 120 min time points”. The “antiallodynic effect, % of the threshold for vehicle-treated rats” value with L5 SNL rats [2] (30 mg/kg IP, 16 days post surgery, 30 min post treatment (FIG. 2)) is recorded as 852%. Also, in the data set with L5 SNL rats [2] (7 days post surgery, tested 30, 60, 120, 240 min (FIG. 10)), the “antiallodynic effect over time, oral” value was “significant antiallodynic effects at all four time points”. Moreover, the “antiallodynic effect over time, oral” value with L5 SNL rats [2] (8 days post surgery, tested 30, 60, 120, 240 min (FIG. 4)) is “significant and robust antiallodynic effects at the 30 and 60 min time points”. The “antiallodynic effect compared with duloxetine, amitriptyline, reboxetine” value with L5 SNL rats [2] (each 30 mg/kg IP (FIG. 5)) is given as “the most effective of the compounds tested”. Moreover, the “affinity for other monoamine carriers (serotonin and dopamine transporters) less than for noradrenaline reuptake” value in the data set on noradrenaline reuptake is recorded as “greater than 100 fold”. In addition, the “affinity for the 5HT2C receptor” value at 5HT2C receptor is listed as “modest affinity”. Moreover, the “fraction of patients with a moderate to good response (HAMD score reduction)” value in data set [3] is given as “⅔”. For the same compound, the “total duration of nocturnal REM sleep” value in the data set with human volunteers (EEG) was “decreased total duration of nocturnal REM sleep”. In the data set on human volunteers (acutely and sub-chronically, EEG), the REM latency entry is reported as “dose-dependently prolonged REM latency”. Also, the “sedation or other side effects in sleep studies” value with human volunteers (human volunteers) is listed as “No sedation or other side effects were observed”.

The values above are taken from patent publication US7829576B2 (priority 2008, dated 2010).
